SMILES strings stand for the structures.

System in one data set: not listed separately
Kind of data set: HPLC logP. It is filed as physicochemical.
Settings: not given
Broadly, the chromatographic logP is a lipophilicity value derived from retention on a column. A higher chromatographic logP goes with a more lipophilic compound. Consider `CON=C(C1=NOCCO1)c1ccccc1Oc1nccc(OC(CF)CF)n1` [Example 1, (5,6-dihydro-[1,4,2]dioxazin-3-yl)-{2-[4-(2-fluoro-1-fluoromethyl-ethoxy)-pyrimidin-2-yloxy]-phenyl}-methanone O-methyl oxime], for which the chromatographic logP came out at 2.2.
On the same count and under the same terms, the value for `CON=C(C1=NOCCO1)c1ccccc1Oc1nccc(OCC(Cl)(Cl)Cl)n1` [Example 2, (5,6-dihydro-[1,4,2]dioxazin-3-yl)-{2-[4-(2,2,2-trichloroethoxy)-pyrimidine-2-yloxy]-phenyl}-methanone O-methyl oxime] was 3.1.
On the same count and under the same terms, the figure for `CON=C(C1=NOCCO1)c1ccccc1Oc1nccc(Cl)n1` [II-1, [2-(4-chloro-pyrimidin-2-yloxy)-phenyl]-(5,6-dihydro-[1,4,2]dioxazin-3-yl)-methanone O-methyl oxime] is 2.

The same data set, now with this note: Table 1.
Take `CON=C(C1=NOCCO1)c1ccccc1Oc1nccc(OC(C)C(F)(F)F)n1` (stereo not drawn) [Example 4]: the chromatographic logP was found to be 2.9.
The same measure, in the same setting: the figure for `CON=C(C1=NOCCO1)c1ccccc1Oc1nccc(OC(C)C)n1` [Example 7] is 2.5.
The same measure, in the same setting: the value for `CON=C(C1=NOCCO1)c1ccccc1Oc1nccc(OCC(F)(F)C(F)(F)F)n1` [Example 8] was 3.1; that for `CCCCOc1ccnc(Oc2ccccc2C(=NOC)C2=NOCCO2)n1` [Example 9] was 3; that for `CON=C(C1=NOCCO1)c1ccccc1Oc1nccc(OCC(Cl)Cl)n1` [Example 10] was 2.7.
`CON=C(C1=NOCCO1)c1ccccc1Oc1nccc(OCC(Br)(Br)Br)n1` [Example 11] gave a chromatographic logP of 3.2.
As for `CON=C(C1=NOCCO1)c1ccccc1Oc1nccc(OCc2ccccc2)n1` [Example 12], the chromatographic logP was determined as 2.9.
For the compound `CCCCCOc1ccnc(Oc2ccccc2C(=NOC)C2=NOCCO2)n1` [Example 14], the chromatographic logP was found to be 3.3.
Still for that read-out and setting: the value for `CON=C(C1=NOCCO1)c1ccccc1Oc1nccc(OCc2ccccc2F)n1` [Example 15] was 2.9.
The compound `CON=C(C1=NOCCO1)c1ccccc1Oc1nccc(OCc2ccc(C)cc2)n1` [Example 16] gave a chromatographic logP of 3.2.
As for `CON=C(C1=NOCCO1)c1ccccc1Oc1nccc(OCCc2ccccc2F)n1` [Example 17], the chromatographic logP is 3.2.
On to `CCCCCCCOc1ccnc(Oc2ccccc2C(=NOC)C2=NOCCO2)n1` [Example 18], for which the chromatographic logP amounted to 4.2.
Same read-out and setting: the figure for `CON=C(C1=NOCCO1)c1ccccc1Oc1nccc(OCc2cccc(F)c2)n1` [Example 19] is 3; for `CON=C(C1=NOCCO1)c1ccccc1Oc1nccc(OCCc2ccccc2C(F)(F)F)n1` [Example 20] it is 3.6; for `CON=C(C1=NOCCO1)c1ccccc1Oc1nccc(OC(C)c2ccccc2)n1` (stereo not drawn) [Example 21] it is 3.1.
On the same count and under the same terms, the figure for `CON=C(C1=NOCCO1)c1ccccc1Oc1nccc(OCc2ccc(Cl)cc2)n1` [Example 22] is 3.3; for `CCCCCCCCOc1ccnc(Oc2ccccc2C(=NOC)C2=NOCCO2)n1` [Example 23] it is 4.7.
Take `CON=C(C1=NOCCO1)c1ccccc1Oc1nccc(OC(C)c2ccccc2Cl)n1` (stereo not drawn) [Example 24]: the chromatographic logP stood at 3.4.
The same measure, in the same setting: the figure for `CON=C(C1=NOCCO1)c1ccccc1Oc1nccc(OCCc2ccccc2)n1` [Example 25] is 3.3.
Consider `CON=C(C1=NOCCO1)c1ccccc1Oc1nccc(OCCc2ccc(Cl)cc2)n1` [Example 26], for which the chromatographic logP was 3.5.
In the case of `CON=C(C1=NOCCO1)c1ccccc1Oc1nccc(OC2CCCCC2)n1` [Example 27], the chromatographic logP was determined as 3.3.
Turning to `CCC(C)Oc1ccnc(Oc2ccccc2C(=NOC)C2=NOCCO2)n1` (stereo not drawn) [Example 29], the chromatographic logP is 2.9.
Still for that read-out and setting: the value for `CCCCCCCCCOc1ccnc(Oc2ccccc2C(=NOC)C2=NOCCO2)n1` [Example 35] was 5.1; that for `CCCCCCCCCCOc1ccnc(Oc2ccccc2C(=NOC)C2=NOCCO2)n1` [Example 36] was 5.6.
The compound `CON=C(C1=NOCCO1)c1ccccc1Oc1nccc(OCCF)n1` [Example 38] showed a chromatographic logP of 2.
Still for that read-out and setting: the figure for `CON=C(C1=NOCCO1)c1ccccc1Oc1nccc(OC(C(F)(F)F)C(F)(F)F)n1` [Example 42] is 3.3.
Still for that read-out and setting: the figure for `C=CCOc1ccnc(Oc2ccccc2C(=NOC)C2=NOCCO2)n1` [Example 48] is 2.4; for `CON=C(C1=NOCCO1)c1ccccc1Oc1nccc(OC2CCCC2)n1` [Example 54] it is 3.
As for `CON=C(C1=NOCCO1)c1ccccc1Oc1nccc(OCC2CCCC2)n1` [Example 58], the chromatographic logP was determined as 3.4.
Turning to `CON=C(C1=NOCCO1)c1ccccc1Oc1nccc(OCC2CC2)n1` [Example 59], the chromatographic logP worked out at 2.5.
The same measure, in the same setting: the value for `CON=C(C1=NOCCO1)c1ccccc1Oc1nccc(OCc2ccc(C)c(Cl)c2)n1` [Example 86] was 3.7; that for `CON=C(C1=NOCCO1)c1ccccc1Oc1nccc(OCCc2ccc(OC)cc2)n1` [Example 98] was 3; that for `CON=C(C1=NOCCO1)c1ccccc1Oc1nccc(OCCCc2ccccc2)n1` [Example 101] was 3.4.
In the case of `CON=C(C1=NOCCO1)c1ccccc1Oc1nccc(SC)n1` [Example 108], the chromatographic logP stood at 2.2.
The compound `CON=C(C1=NOCCO1)c1ccccc1Oc1nccc(SCc2ccccc2)n1` [Example 120] came in with a chromatographic logP of 3.14.
The compound `CON=C(C1=NOCCO1)c1ccccc1Oc1nccc(NCc2ccccc2)n1` [Example 136] showed a chromatographic logP of 1.6.
Same read-out and setting: the value for `CON=C(C1=NOCCO1)c1ccccc1Oc1nccc(NCCc2ccccc2)n1` [Example 139] was 2.4; that for `CON=C(C1=NOCCO1)c1ccccc1Oc1nccc(N(C)Cc2ccccc2)n1` [Example 152] was 1.84; that for `CON=C(C1=NOCCO1)c1ccccc1Oc1nccc(OCc2ccc(OC)cc2)n1` [Example 156] was 2.8.
The same measure, in the same setting: the figure for `CON=C(C1=NOCCO1)c1ccccc1Oc1nccc(OCC(F)(F)C(F)F)n1` [Example 157] is 2.6; for `CON=C(C1=NOCCO1)c1ccccc1Oc1nccc(OCCC(F)(F)F)n1` [Example 158] it is 2.6; for `CON=C(C1=NOCCO1)c1ccccc1Oc1nccc(OCCCCCc2ccccc2)n1` [Example 159] it is 4.1.
`C#CCOc1ccnc(Oc2ccccc2C(=NOC)C2=NOCCO2)n1` [Example 160] came in with a chromatographic logP of 2.1.
`CON=C(C1=NOCCO1)c1ccccc1Oc1nccc(OCC=Cc2ccccc2)n1` [Example 161]: the chromatographic logP came to 3.3.
In turn, `CON=C(C1=NOCCO1)c1ccccc1Oc1nccc(OCC2C(C=C(C)C)C2(C)C)n1` (stereo not drawn) [Example 162] displayed a chromatographic logP of 4.3.
The same measure, in the same setting: the value for `CCCCCCCCCCCCCCCCOc1ccnc(Oc2ccccc2C(=NOC)C2=NOCCO2)n1` [Example 163] was greater than 7.4; that for `C=CC(C)Oc1ccnc(Oc2ccccc2C(=NOC)C2=NOCCO2)n1` (stereo not drawn) [Example 164] was 2.7; that for `C/C=C/C=C/COc1ccnc(Oc2ccccc2C(=NOC)C2=NOCCO2)n1` [Example 165] was 3.2.
Regarding `C/C=C\COc1ccnc(Oc2ccccc2C(=NOC)C2=NOCCO2)n1` [Example 166], the chromatographic logP was determined as 2.7.
The compound `CON=C(C1=NOCCO1)c1ccccc1Oc1nccc(OCc2ccc(SC)cc2)n1` [Example 168] had a chromatographic logP of 2.1.
With `C=C(Br)COc1ccnc(Oc2ccccc2C(=NOC)C2=NOCCO2)n1` [Example 169], the chromatographic logP is 2.7.
Turning to `CON=C(C1=NOCCO1)c1ccccc1Oc1nccc(NC(C)c2ccccc2)n1` (stereo not drawn) [Example 171], the chromatographic logP came out at 1.8.
With `CON=C(C1=NOCCO1)c1ccccc1Oc1nccc(OCC2(C)CC2(Cl)Cl)n1` (stereo not drawn) [Example 172], the chromatographic logP was determined as 3.3.

The subject of a further data set is Plasmopara viticola. Kind of data set: Example D: Plasmopara test (grapevine)/protective. It is filed as in vivo. Particulars: Plasmopara viticola, 144 h, protective, 6 days after inoculation, vs untreated control, read-out: Efficacy in %. How it is done: Plasmopara test (grapevine)/protective Solvent: 47 parts by weight of acetone Emulsifier: 3 parts by weight of alkylaryl polyglycol ether To produce a suitable preparation of active compound, 1 part by weight of active compound is mixed with the stated amount of solvent and emulsifier, and the concentrate is diluted with water to the desired concentration. To test for protective activity, young plants are sprayed with the preparation of active compound at the stated application rate. […]
`CON=C(C1=NOCCO1)c1ccccc1Oc1nccc(OC(CF)CF)n1` [Example 1, (5,6-dihydro-[1,4,2]dioxazin-3-yl)-{2-[4-(2-fluoro-1-fluoromethyl-ethoxy)-pyrimidin-2-yloxy]-phenyl}-methanone O-methyl oxime]: the pest or weed control at 100 g/ha was no more than 100%.
With `CON=C(C1=NOCCO1)c1ccccc1Oc1nccc(OCC(Cl)(Cl)Cl)n1` [Example 2, (5,6-dihydro-[1,4,2]dioxazin-3-yl)-{2-[4-(2,2,2-trichloroethoxy)-pyrimidine-2-yloxy]-phenyl}-methanone O-methyl oxime], the pest or weed control at 100 g/ha is no more than 100%.
On the same count and under the same terms, the value for `CON=C(C1=NOCCO1)c1ccccc1Oc1nccc(OC(C)C)n1` [Example 7] was no more than 100%.
For the compound `CON=C(C1=NOCCO1)c1ccccc1Oc1nccc(OCC(F)(F)C(F)(F)F)n1` [Example 8], the pest or weed control at 100 g/ha is no more than 100%.
Same read-out and setting: the value for `CCCCOc1ccnc(Oc2ccccc2C(=NOC)C2=NOCCO2)n1` [Example 9] was no more than 100%; that for `CON=C(C1=NOCCO1)c1ccccc1Oc1nccc(OCC(Cl)Cl)n1` [Example 10] was no more than 100%.
On the same count and under the same terms, the figure for `CON=C(C1=NOCCO1)c1ccccc1Oc1nccc(OCC(Br)(Br)Br)n1` [Example 11] is no more than 100%; for `CON=C(C1=NOCCO1)c1ccccc1Oc1nccc(OCc2ccccc2)n1` [Example 12] it is no more than 100%; for `CCCCCOc1ccnc(Oc2ccccc2C(=NOC)C2=NOCCO2)n1` [Example 14] it is no more than 100%.

The same data set, now with this note: protective, 100 g/ha, 6 days after inoculation, vs untreated control.
Compound `CON=C(C1=NOCCO1)c1ccccc1Oc1nccc(OCC(Br)(Br)Br)n1` [drawing 37] registered an Efficacy in % of 100%.
The same measure, in the same setting: the figure for `CON=C(C1=NOCCO1)c1ccccc1Oc1nccc(OCc2ccccc2)n1` [drawing 38] is 100%; for `CCCCCCOc1ccnc(Oc2ccccc2C(=NOC)C2=NOCCO2)n1` [drawing 39] it is 100%; for `CCCCCOc1ccnc(Oc2ccccc2C(=NOC)C2=NOCCO2)n1` [drawing 40] it is 99%.

The next data set deals with Sphaerotheca fuliginea. Put plainly: Example E: Sphaerotheca test (cucumber)/protective. In kind it is in vivo. Particulars: protective, 100 g/ha, 10 days after inoculation, vs untreated control. The protocol:
Sphaerotheca test (cucumber)/protective Solvent: 47 parts by weight of acetone Emulsifier: 3 parts by weight of alkylaryl polyglycol ether To produce a suitable preparation of active compound, 1 part by weight of active compound is mixed with the stated amount of solvent and emulsifier, and the concentrate is diluted with water to the desired concentration. To test for protective activity, young plants are sprayed with the preparation of active compound at the stated application rate. After the spray coating is dried on, the plants are inoculated with an aqueous spore suspension of Sphaerotheca fuliginea.
In the case of `CON=C(C1=NOCCO1)c1ccccc1Oc1nccc(OCC(Cl)(Cl)Cl)n1` [Example 2, (5,6-dihydro-[1,4,2]dioxazin-3-yl)-{2-[4-(2,2,2-trichloroethoxy)-pyrimidine-2-yloxy]-phenyl}-methanone O-methyl oxime], the Efficacy in % entry is recorded as “more than 90%”.
The same measure, in the same setting: the entry for `CON=C(C1=NOCCO1)c1ccccc1Oc1nccc(OCC(F)(F)C(F)(F)F)n1` [Example 8] is “more than 90%”.
The same measure, in the same setting: the figure for `CON=C(C1=NOCCO1)c1ccccc1Oc1nccc(OCC(F)(F)C(F)(F)F)n1` [drawing 43] is 92%.

Values taken from patent US6262051A, “Fungicidal methoximinomethyldioxazines” (Bayer Aktiengesellschaft, priority 1997, dated 2001).
